From paper PMC4945539 (Mycobiology, 2016) come the findings set out here.

In the test the target is neuraminidase. Kind of test: Inhibition kinetics. It counts as biochemical, influenza virus. The settings on record: decrease in Vmax while Km remained stable.

In the case of `CC1=CC(=O)C2(O1)C(c1cc3oc(=O)c4cc(O)c(O)cc4c3c(=O)o1)=Cc1cc(O)c(O)cc12` (centres unmarked) [compound 1, phelligridin E], the Kinetic mode result is recorded as “noncompetitive”.
For the molecule `O=C1C=C(/C=C/c2ccc(O)c(O)c2)OC12C(c1cc3oc(=O)c4cc(O)c(O)cc4c3c(=O)o1)=Cc1cc(O)c(O)cc12` (centres unmarked) [compound 2, phelligridin G], the Kinetic mode entry is listed as “noncompetitive”.
